Results taken from patent publication US20240228493A1, “LRRK2 INHIBITORS AND USES THEREOF” (NEURON23, ICN., priority 2022, published 2024).
Values belong to the molecule of their own block, whether it stands above or below them.

Experiments:
[1] = target: T1, wt human LRRK2, catalytic site (Homo sapiens, UniProt Q5S007); assay: TR-FRET LanthaScreen Tb Kinase Activity Assay, LRRK2 inhibition; format: biochemical; conditions: 2 nM wt human LRRK2, 400 nM peptide, 38 μM ATP
T1 construct: wt human LRRK2, catalytic site, catalytic site (ThermoFisher/USA); purchased ThermoFisher
Experimental: The compounds disclosed herein were tested for their inhibitory effect on LRRK2 kinase according to the following procedures.
The protocol for basic TR-FRET LanthaScreen Tb Kinase Activity Assay inhibitor studies were as follows. LanthaScreen Kinase Activity Assays (ThermoFisher/USA) to evaluate inhibitors were performed by addition of 100 nL of test compound in corresponding DMSO dilutions/5 μL of kinase/fluorescein-ERM (LRRKtide) peptide mixture, Compound & kinase were pre-incubated for 15 minutes, then 5 μl of ATP into 384 well small volume plates. After incubation for 120 minutes at room temperature, the detection reagents containing Tb-anti-pLRRKtide antibody were added to monitor phosphorylation level of peptide. Then, after 60 min minutes incubation at room temperature plates were read in Envision. Data analysis of emission ratios was according to LanthaScreen Tb Kinase Activity Assay protocol.
Kinase and assay components were adjusted to final concentrations according to the kit protocol. For LRRK2: 2 nM wt human LRRK2, catalytic site, catalytic site (ThermoFisher/USA), 400 nM peptide, 38 μM ATP in 1× Kinase Buffer A. […]
Kinase and assay components were adjusted to final concentrations according to the kit protocol.

Caco-2 cells = assay: Caco-2 bidirectional permeability; format: in vitro ADME; conditions: for Caco-2 ER: Efflux Ratio=Papp(BA)/Papp(AB); for Caco-2 A2B (10^−6 cm/s): apical to basolateral; for Caco-2 A2B (10^−6 cm/s) / Caco-2 B2A (10^−6 cm/s): 2 hours, pH 7.4; for Caco-2 B2A (10^−6 cm/s): basolateral to apical
Experimental: The compounds disclosed herein were tested in vitro on CaCo2 cell penetration according to the following procedures.
Caco-2 cells purchased from ATCC were seeded onto […] (PET) in 96-well Corning Insert plates at 1×10^5 cells/cm^2. The media were refreshed every 4 to 5 days until the 21st to 28th day for confluent cell monolayer formation.
Experiments were run in duplicate using a HBSS transport buffer containing 10 mM HEPES at pH 7.4. The test article TEST COMPOUND was tested bi-directionally at […] concentrations, the control compound digoxin was tested bi-directionally at 10 μM, and nadolol and metoprolol were tested at 2.0 μM in the A to B direction. Final DMSO concentrations were adjusted to less than 1%. The plates were incubated for 2 hours in a CO2 incubator at 37±1° C. with 5% CO2 at saturated humidity without shaking. Following incubation, samples were mixed with acetonitrile containing internal standard and centrifuged at 3200×g for 10 minutes. Then 200 μL of supernatant was taken from all samples. For TEST COMPOUND and digoxin, the supernatant was diluted with 200 μL of ultra-pure water and for nadolol and metoprolol, the supernatant was diluted with 600 μL of ultra-pure water. All samples were analyzed by LC-MS/MS. Concentrations of TEST COMPOUND and control compounds were determined in starting solutions, donor well solutions, and receiver well solutions using peak area ratios (PAR) of analyte to internal standard. After the transport assay, a lucifer yellow rejection assay was run to determine the Caco-2 cell monolayer integrity.
The apparent permeability (Papp), the % recovery and the efflux ratio were calculated as follows:
Papp=(dCr/dt)×Vr/(A×C0) 1.
Efflux Ratio=Papp(BA)/Papp(AB) 3. • Where: • dCr/dt is the slope of the cumulative concentration in the receiver compartment versus time (mM/s). • Vr and Vd is the volume in the receiver and donor compartments (0.075 mL on the apical side, 0.25 mL on the basolateral side), respectively. • A is the surface area of the cell monolayer (0.0804 cm^2). • C0 is the measured donor concentrations (μM) at the beginning of the experiment. • Cd and Cr are the final measured concentrations in the donor and receiver compartments, respectively.

human hepatocyte = assay: Human hepatocyte stability, predicted hepatic clearance (h-Hept CL predict); format: in vitro ADME; conditions: human hepatocytes, 0.5×10^6 cells/mL, 1 μM, values without asterisk
Experimental: The compounds disclosed herein were tested in vitro on human hepatocyte for in vitro h-Hept CL predict according to the following procedures. • 1. Compound sock solutions were prepared by dissolving test compound and positive control in dimethyl sulfoxide (DMSO) at a concentration of 10 mM. Stock solutions were then diluted to 100 μM solutions by combining 198 μL of 50% acetonitrile/50% water with 2 μL of the 10 mM stock in separate conical tubes. • 2. Cryopreserved hepatocytes were prepared as follows: Incubation medium (William's E Medium supplemented with GlutaMAX) and hepatocyte thawing medium were placed in a 37° C. water bath and allowed to warm for at least 15 minutes prior to use. Cryopreserved hepatocytes were removed from storage, ensuring that vials remained at cryogenic temperatures until thawed. Cells were thawed by placing the vials in a 37° C. water bath and gently shaking the vials for 2 minutes. After thawing was completed, vials were sprayed with 70% ethanol and transferred to a biosafety cabinet. Hepatocytes were transferred into 50 mL conical tube containing thawing medium using wide-bore pipette tips. Tubes were placed into a centrifuge and spun at 100 g for 10 minutes. Then thawing medium was aspirated and hepatocytes were resuspended in enough incubation medium to yield ˜1.5×10^6 cells/mL. Cells were counted using acridine orange and propidium iodide (AO/PI) staining, and the viable cell density was determined. Cells were diluted with incubation medium to a working cell density of 0.5×10^6 viable cells/mL. • 3. To determine hepatocyte stability, 198 μL of hepatocytes were transferred into each well of a 96-well non-coated plate. Plates were placed in an incubator to allow the hepatocytes to warm for 10 minutes. • 4. The reaction was started by transferring 2 μL of the 100 μM test compound or positive control solution into respective wells of the 96-well non-coated plates. Plates were returned to the incubator until 25 μL aliquots of well contents were sampled at time points of 0, 15, 30, 60, 90 and 120 minutes. The aliquots were then mixed with 6 volumes (150 μL) of acetonitrile containing internal standard, IS (100 nM alprazolam, 200 nM caffeine and 100 nM tolbutamide) to terminate the reaction and vortexed for 5 minutes. After centrifuging the samples for 45 minutes at 3,220 g, aliquots of 100 μL of the supernatant were taken and diluted with 100 μL of ultra-pure water. The mixture was used for LC/MS/MS analysis. All incubations were performed in duplicate.
All calculations were carried out using Microsoft Excel. Peak area ratios (PAR) were determined from extracted ion chromatograms. The in vitro half-life (t1/2) of parent compound was determined by regression analysis of the percent parent disappearance vs. time curve as follows:
Conversion of the in vitro t1/2 (in minutes) into the in vitro intrinsic clearance (in vitro CLint, in μL/min/1×10^6 cells) was done using the following equation (mean of duplicate determinations): […]
The scaled-up intrinsic clearance (CLint, mL/min/kg), predicted hepatic clearance (CLH, mL/min/kg) and hepatic extraction ratio (ER) were calculated using the following equations:
CLint=(0.693/t1/2)*(1/(hepatocyte concentration (0.5*10^6 cells/mL)))*scaling factors (Table (A) Appendix Table 1)
CLHept-predict=(QH*Scaled-up CLint*fub)/(QH+Scaled-up CLint*fub)
ER=CLH/QH • Where: • V=incubation volume (0.2 mL) • N=number of hepatocytes per well (0.1*10^6 cells) • QH=hepatic blood flow (mL/min/kg) (Table (A) Appendix Table 1) • fub=fraction of unbound drug in plasma, assumed to be 1

T1 sequence (Q5S007 1879-2138 limits assumed): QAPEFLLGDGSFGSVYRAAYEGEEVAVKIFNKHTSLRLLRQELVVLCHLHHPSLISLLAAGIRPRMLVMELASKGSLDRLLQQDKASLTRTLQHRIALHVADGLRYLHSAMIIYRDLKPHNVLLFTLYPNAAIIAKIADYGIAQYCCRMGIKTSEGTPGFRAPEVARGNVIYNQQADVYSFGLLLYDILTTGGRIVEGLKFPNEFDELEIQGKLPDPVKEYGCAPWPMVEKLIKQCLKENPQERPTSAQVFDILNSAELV

SMILES: CCS(=O)(=O)N1CCN(c2cc3c(cn2)NC(c2c(F)cccc2F)=Nc2c(C)n[nH]c2-3)CC1 [Example 11, 8-(2,6-difluorophenyl)-13-(4-ethylsulfonylpiperazin-1-y1)-5-methyl-3,4,7,9,12-pentazatricyclo[8.4.0.02, 6]tetradeca-1(10),2(6),4,7,11,13-hexaene]
IC50 [1]: < 1 nM
Caco-2 ER (Caco-2 cells): L (L (Likely)”: ER≥2.5)
Caco-2 A2B (10^−6 cm/s) (Caco-2 cells): L (L (Low permeability)”: A2B (B2A)<1)
Caco-2 B2A (10^−6 cm/s) (Caco-2 cells): H (H (High permeability)”: A2B (B2A)>5)
hHep Cl (mL/min/kg) (human hepatocyte): I (I (Intermediate Cl)”: 6.3≤Hep Cl (mL/min/kg)≤14.7)

SMILES: COC[C@@H]1CN(c2cc3c(cn2)NC(c2c(F)cccc2F)=Nc2c(C)n[nH]c2-3)CCO1 [Example 16, (2S)-4-[8-(2,6-difluorophenyl)-5-methyl-3,4,7,9,12-pentazatricyclo[8.4.0.02,6]tetradeca-1(10),2(6),4,7,11,13-hexaen-13-y1]-2-(methoxymethyl)morpholine]
IC50 [1]: 1 to 100 nM
Caco-2 ER (Caco-2 cells): L (L (Likely)”: ER≥2.5)
Caco-2 A2B (10^−6 cm/s) (Caco-2 cells): M (M (Moderate permeability)”: 1≤A2B (B2A)≤5)
Caco-2 B2A (10^−6 cm/s) (Caco-2 cells): H (H (High permeability)”: A2B (B2A)>5)
hHep Cl (mL/min/kg) (human hepatocyte): L (L (Low Cl)”: Hep Cl (mL/min/kg)<6.3)

SMILES: Cc1n[nH]c2c1N=C(c1c(F)cccc1F)Nc1cnc(N3CCC[C@H](C#N)C3)cc1-2 [Example 19, (3S)-1-[8-(2,6-difluorophenyl)-5-methyl-3,4,7,9,12-pentazatricyclo [8.4.0.02,6]tetradeca-1(10),2(6),4,7,11,13-hexaen-13-yl]piperidine-3-carbonitrile]
IC50 [1]: 1 to 100 nM
Caco-2 ER (Caco-2 cells): L (L (Likely)”: ER≥2.5)
Caco-2 A2B (10^−6 cm/s) (Caco-2 cells): M (M (Moderate permeability)”: 1≤A2B (B2A)≤5)
Caco-2 B2A (10^−6 cm/s) (Caco-2 cells): H (H (High permeability)”: A2B (B2A)>5)
hHep Cl (mL/min/kg) (human hepatocyte): L (L (Low Cl)”: Hep Cl (mL/min/kg)<6.3)

Now from value to molecule, other results behind:

IC50 [1]: 1 to 100 nM
Caco-2 ER (Caco-2 cells): L (L (Likely)”: ER≥2.5)
Caco-2 B2A (10^−6 cm/s) (Caco-2 cells): H (H (High permeability)”: A2B (B2A)>5)
hHep Cl (mL/min/kg) (human hepatocyte): L (L (Low Cl)”: Hep Cl (mL/min/kg)<6.3)
SMILES: COC[C@H]1CN(c2cc3c(cn2)NC(c2c(F)cccc2F)=Nc2c(C)n[nH]c2-3)CCO1 [Example 15, (2R)-4-[8-(2,6-difluorophenyl)-5-methyl-3,4,7,9,12-pentazatricyclo[8.4.0.02,6]tetradeca-1(10),2(6),4,7,11,13-hexaen-13-y1]-2-(methoxymethyl)morpholine]
Caco-2 A2B (10^−6 cm/s) (Caco-2 cells): M (M (Moderate permeability)”: 1≤A2B (B2A)≤5)

IC50 [1]: < 1 nM
Caco-2 ER (Caco-2 cells): L (L (Likely)”: ER≥2.5)
Caco-2 A2B (10^−6 cm/s) (Caco-2 cells): L (L (Low permeability)”: A2B (B2A)<1)
Caco-2 B2A (10^−6 cm/s) (Caco-2 cells): H (H (High permeability)”: A2B (B2A)>5)
hHep Cl (mL/min/kg) (human hepatocyte): L (L (Low Cl)”: Hep Cl (mL/min/kg)<6.3)
SMILES: OCc1ccc(F)c(C2=Nc3c(Cl)n[nH]c3-c3cc(N4CCOCC4)ncc3N2)c1F [Example 21, (3-(3-chloro-9-morpholino-1,6-dihydropyrazolo[4,3-d]pyrido[4,3-f][1,3]diazepin-5-yl)-2,4-difluorophenyl)methanol]

IC50 [1]: < 1 nM
Caco-2 ER (Caco-2 cells): L (L (Likely)”: ER≥2.5)
Caco-2 A2B (10^−6 cm/s) (Caco-2 cells): L (L (Low permeability)”: A2B (B2A)<1)
Caco-2 B2A (10^−6 cm/s) (Caco-2 cells): H (H (High permeability)”: A2B (B2A)>5)
SMILES: OCc1cc(F)c(C2=Nc3c(Cl)n[nH]c3-c3cc(N4CCOCC4)ncc3N2)c(F)c1 [Example 22, (4-(3-chloro-9-morpholino-1,6-dihydropyrazolo[4,3-d]pyrido[4,3-f][1,3]diazepin-5-y1)-3,5-difluorophenyl)methanol]
hHep Cl (mL/min/kg) (human hepatocyte): I (I (Intermediate Cl)”: 6.3≤Hep Cl (mL/min/kg)≤14.7)

IC50 [1]: < 1 nM
Caco-2 ER (Caco-2 cells): L (L (Likely)”: ER≥2.5)
Caco-2 B2A (10^−6 cm/s) (Caco-2 cells): H (H (High permeability)”: A2B (B2A)>5)
SMILES: Fc1cccc(Cl)c1C1=Nc2c(Cl)n[nH]c2-c2cc(N3CCOCC3)ncc2N1 [Example 24, (4-[5-chloro-8-(2-chloro-6-fluoro-phenyl)-3,4,7,9,12-pentazatricyclo[8.4.0.02,6]tetradeca-1(10),2(6),4,7,11,13-hexaen-13-yl]morpholine)]
Caco-2 A2B (10^−6 cm/s) (Caco-2 cells): M (M (Moderate permeability)”: 1≤A2B (B2A)≤5)
hHep Cl (mL/min/kg) (human hepatocyte): I (I (Intermediate Cl)”: 6.3≤Hep Cl (mL/min/kg)≤14.7)

IC50 [1]: < 1 nM
Caco-2 ER (Caco-2 cells): L (L (Likely)”: ER≥2.5)
Caco-2 B2A (10^−6 cm/s) (Caco-2 cells): H (H (High permeability)”: A2B (B2A)>5)
hHep Cl (mL/min/kg) (human hepatocyte): L (L (Low Cl)”: Hep Cl (mL/min/kg)<6.3)
SMILES: [2H]C1([2H])OC([2H])([2H])C([2H])([2H])N(c2cc3c(cn2)NC(c2c(F)cccc2F)=Nc2c(Cl)n[nH]c2-3)C1([2H])[2H] [Example 25, 4-[5-chloro-8-(2,6-difluorophenyl)-3,4,7,9,12-pentazatricyclo[8.4.0.02,6]tetradeca-1(10),2(6),4,7,11,13-hexaen-13-yl]-2,2,3,3,5,5,6,6-octadeuterio-morpholine]
Caco-2 A2B (10^−6 cm/s) (Caco-2 cells): M (M (Moderate permeability)”: 1≤A2B (B2A)≤5)
